Measured values from patent publication US5023266A, “Method of treatment of psychotic disorders” (Synthelabo, priority 1989, dated 1991).

Molecular target: σ-receptor
Test: Inhibition of [3H]-(+)-3-PPP binding to the σ-receptor in rat cerebral cortex membranes
Conditions: 2nM [3H]-(+)-3-PPP, 90 min at 25° C., non-specific binding defined with 1μM haloperidol, read-out: IC50, concentration which inhibits 50 percent of the [3H]-(+)-3-PPP binding
Protocol: In particular their inhibitory activity on the binding of [^3 H](+)3(3-hydroxyphenyl)-N-(1-propyl)-piperidine, or [^3 H]-(+)-3-PPP, to the σ-receptor in the cerebral cortex of rats has been studied, essentially as described in J. Pharmacol. Exp. Ther., 238, 739-748, (1986). Male Sprague-Dawley rats (150-200 g) were sacrificed, and the cerebral cortex was homogenized in 25 volumes of ice-cold Tris-HCl buffer (pH 7.4 at 25° C.) with the use of an Ultra-Turrax™ polytron. The homogenate was washed twice by centrifugation (10 min at 45,000g) and intermittent resuspension of the resulting pellet in fresh buffer. The final pellet was resuspended in 20 volumes of 50mM Tris-HCl buffer (pH 8.0 at 22° C.). A 75 μl aliquot of this membrane preparation was then incubated in a final volume of 250 μl with 2nM [^3 H]-(+)-3-PPP (specific activity 90 Ci/mmol; New England Nuclear) for 90 min at 25° C., in the absence or in the presence of competing drugs. After incubation, the membranes were recovered by filtration over 0.05% polyethyleneimine-pretreated Whatman™ GF/B filters using a Skatron™ Cell Harvester, and washed with ±2.5 ml of ice-cold 50mM Tris-HCl buffer (pH 7.7 at 0° C.). Non-specific binding was defined with 1μM haloperidol.
Data were analyzed by conventional graphical techniques and least-squares regression analysis where appropriate.
The following Table indicates the IC50 of the compounds, i.e. the concentration (μM) which inhibits 50 percent of the [^3 H]-(+)-3-PPP.

Compound	IC50 [nM]
C[C@H]([C@H](O)c1ccc(O)cc1)N1CCC(Cc2ccccc2)CC1 (relative stereo) [Compound 2]	10
C[C@@H]([C@H](O)c1ccc(O)cc1)N1CCC(Cc2ccccc2)CC1 (relative stereo) [Compound 1]	8
C[C@@H]([C@H](O)c1ccc(O)cc1)N1CCC(Cc2ccccc2)CC1 (single isomer, unassigned) [Compound 3]	15

Second part, the molecule after the results:

IC50 [nM]	Compound
7	C[C@@H]([C@H](O)c1ccc(O)cc1)N1CCC(Cc2ccccc2)CC1 (single isomer, unassigned) [Compound 4]
9.2	OC(CN1CCC(Cc2ccc(F)cc2)CC1)c1ccc(Cl)cc1 (single isomer, unassigned) [Compound 6]
3	OC(CN1CCC(Cc2ccc(F)cc2)CC1)c1ccc(Cl)cc1 (racemic) [Compound 5]
9.8	OC(CN1CCC(Cc2ccc(F)cc2)CC1)c1ccc(Cl)cc1 (single isomer, unassigned) [Compound 7]
